Measured values reported in publication PMC11876601 (Molecular Systems Biology, 2025).
Where “and” joins values, the source holds several entries; their conditions need not be identical. Identical values can stand only once. Like-named read-outs stand apart in the source and are kept apart here.

Key:
[1] = test system: PANC-1 cells; experiment: Cell proliferation assay, GEM + ATR inhibitor (Incucyte confluence, 72 h); details: for EC50: Homo sapiens, experiment GEM (GEM alone, in the series of the ATRi named in column Drug); for Response: ATRi 0 nM (GEM), R1-R3;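 as to EC50: in combination experiments GEM is titrated while ATRi is held at a fixed sub-EC50 dose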;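 as to all read-outs here: PANC-1 confluence at 72 h taken as raw values, not normalized to starting confluence, with each experiment run in triplicate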
Protocol: (§1) Cells were seeded at 5000 cells/well into 96-well flat bottom plates (Eppendorf) and allowed to attach overnight. […] Cells were incubated for 72 h at 37 °C and 5% CO2. Cell confluence readouts at 72 h were either normalized to their initial confluence using the Incucyte software (AsPC-1) or used without prior normalization (all others). […] Each experiment was performed in triplicates, the data was plotted as mean ± standard deviation (s.d.).

[2] = test system: AsPC-1 cells; experiment: Cell proliferation assay, chemodrug + ATR inhibitor (Incucyte confluence, 72 h); details: for Curve bottom / Curve top / Curve slope: AsPC1; for Curve bottom / Curve top: fitted curve, relative response; for Curve slope: fitted dose-response curve;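 as to all read-outs here: underlying read-out for every value is AsPC-1 confluence after 72 h incubation at 37 °C and 5% CO2, divided by that well's starting confluence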
Protocol: as §1

[3] = PANC-1, experiment GEM (GEM alone), plateau of fitted curve, ratio drug/vehicle confluence
[4] = Experiment GEM alone in the Berzosertib series
[5] = Experiment GEM alone in the Ceralasertib series
[6] = Experiment GEM alone in the Elimusertib series
[7] = Experiment GEM alone in the Gartisertib series

Question: Which EC50 ([1]; PANC-1, PANC-1, replicates R1-R3) does the source give for `Nc1ccn([C@@H]2O[C@H](CO)[C@@H](O)C2(F)F)c(=O)n1` [GEM, Gemcitabine] here?
Answer: The EC50 was 5.84e-08 M.

Question: And the EC50 ([1]; PANC-1, read-out: pEC50, PANC-1 (converted), -log10 of EC50 [M])?
Answer: The EC50 was 5.89e-08 M.

Question: What about the Response ([1]; PANC-1, GEM 1 nM) of the same compound?
Answer: The Response was 55.73 and 93.02 and 87.94.

Question: What about the Response ([1]; PANC-1, GEM 3 nM) of the same compound?
Answer: The Response was 54.62 and 89.30 and 88.72.

Question: And the Response ([1]; PANC-1, GEM 10 nM)?
Answer: The Response was 65.10 and 93.01 and 80.93.

Question: And the Response ([1]; PANC-1, GEM 30 nM)?
Answer: Its Response is 43.73 and 76.60 and 68.58.

Question: What about the Response ([1]; PANC-1, GEM 300 nM) of the same compound?
Answer: The Response was 45.56 and 60.97 and 63.22.

Question: And the Response ([1]; PANC-1, GEM 1000 nM)?
Answer: The Response was 38.26 and 66.03 and 59.27.

Question: What about the Response ([1]; PANC-1, GEM 3000 nM) of the same compound?
Answer: The Response was 35.94 and 56.55 and 61.30.

Question: What about the Curve bottom [1, 3] of the same compound?
Answer: Its Curve bottom is 1.02 and 1.05 and 1.06 and 0.91 and 1.00 and 0.98.

Question: And the Curve top [1, 3]?
Answer: Its Curve top is 0.74.

Question: And the Curve bottom [2, 4]?
Answer: The Curve bottom was 1.01 and 1.02.

Question: What about the Curve top [2, 4] of the same compound?
Answer: The Curve top was 0.52 and 0.50.

Question: What about the Curve bottom [2, 5] of the same compound?
Answer: Its Curve bottom is 0.98 and 0.99.

Question: And the Curve top [2, 5]?
Answer: The Curve top was 0.56 and 0.44 and 0.46.

Question: What about the Curve bottom [2, 6] of the same compound?
Answer: The Curve bottom was 1.00 and 0.96 and 1.04.

Question: What about the Curve top [2, 6] of the same compound?
Answer: Its Curve top is 0.42 and 0.43 and 0.44.

Question: What about the Curve slope [2, 6] of the same compound?
Answer: The Curve slope was 1.10 and 1.63 and 1.11.

Question: And the Curve bottom [2, 7]?
Answer: The Curve bottom was 0.99 and 0.98 and 1.02.

Question: And the Curve top [2, 7]?
Answer: Its Curve top is 0.53 and 0.46 and 0.43.

Question: And the Curve slope [2, 7]?
Answer: Its Curve slope is 0.94 and 1.48 and 1.05.

Question: What about the “Raw data (confluence at 72 h/confluence at 0 h)” value (from here on “Raw data”) ([2]; Berzosertib experiment, replicate R3, titrated drug dose 1 nM) of the same compound?
Answer: Its value is 3.42.

Question: What about the “Raw data” value ([2]; Berzosertib experiment, replicate R3, titrated drug dose 3 nM) of the same compound?
Answer: The value was 3.51.

Question: And the “Raw data” value ([2]; Berzosertib experiment, replicate R3, titrated drug dose 10 nM)?
Answer: The value was 3.46.

Question: And the “Raw data” value ([2]; Berzosertib experiment, replicate R3, titrated drug dose 30 nM)?
Answer: The value was 3.01.

Question: What about the “Raw data” value ([2]; Berzosertib experiment, replicate R3, titrated drug dose 100 nM) of the same compound?
Answer: Its value is 2.04.

Question: And the “Raw data” value ([2]; Berzosertib experiment, replicate R1, titrated drug dose 1 nM)?
Answer: Its value is 3.13.

Question: And the “Raw data” value ([2]; Berzosertib experiment, replicate R1, titrated drug dose 3 nM)?
Answer: Its value is 3.29.

Question: What about the “Raw data” value ([2]; Berzosertib experiment, replicate R1, titrated drug dose 10 nM) of the same compound?
Answer: Its value is 2.93.

Question: What about the “Raw data” value ([2]; Berzosertib experiment, replicate R1, titrated drug dose 30 nM) of the same compound?
Answer: The value was 2.52.

Question: What about the “Raw data” value ([2]; Berzosertib experiment, replicate R1, titrated drug dose 100 nM) of the same compound?
Answer: The value was 2.11.

Question: What about the “Raw data” value ([2]; Berzosertib experiment, replicate R1, titrated drug dose 300 nM) of the same compound?
Answer: The value was 1.92.

Question: What about the “Raw data” value ([2]; Berzosertib experiment, replicate R2, titrated drug dose 1 nM) of the same compound?
Answer: The value was 3.67.

Question: What about the “Raw data” value ([2]; Berzosertib experiment, replicate R2, titrated drug dose 3 nM) of the same compound?
Answer: The value was 3.44.

Question: What about the “Raw data” value ([2]; Berzosertib experiment, replicate R2, titrated drug dose 10 nM) of the same compound?
Answer: The value was 3.56.

Question: And the “Raw data” value ([2]; Berzosertib experiment, replicate R2, titrated drug dose 30 nM)?
Answer: The value was 3.03.

Question: What about the “Raw data” value ([2]; Ceralasertib experiment, replicate R1, titrated drug dose 1 nM) of the same compound?
Answer: The value was 2.79.

Question: What about the “Raw data” value ([2]; Ceralasertib experiment, replicate R1, titrated drug dose 3 nM) of the same compound?
Answer: Its value is 3.19.

Question: And the “Raw data” value ([2]; Ceralasertib experiment, replicate R1, titrated drug dose 10 nM)?
Answer: Its value is 2.64.

Question: And the “Raw data” value ([2]; Ceralasertib experiment, replicate R1, titrated drug dose 30 nM)?
Answer: The value was 2.39.

Question: And the “Raw data” value ([2]; Ceralasertib experiment, replicate R1, titrated drug dose 100 nM)?
Answer: The value was 2.12.

Question: And the “Raw data” value ([2]; Ceralasertib experiment, replicate R2, titrated drug dose 1 nM)?
Answer: Its value is 3.88.

Question: And the “Raw data” value ([2]; Ceralasertib experiment, replicate R2, titrated drug dose 3 nM)?
Answer: Its value is 3.93.

Question: And the “Raw data” value ([2]; Ceralasertib experiment, replicate R2, titrated drug dose 10 nM)?
Answer: The value was 3.66.

Question: What about the “Raw data” value ([2]; Ceralasertib experiment, replicate R2, titrated drug dose 30 nM) of the same compound?
Answer: The value was 3.19.

Question: What about the “Raw data” value ([2]; Ceralasertib experiment, replicate R2, titrated drug dose 100 nM) of the same compound?
Answer: The value was 2.36.

Question: And the “Raw data” value ([2]; Ceralasertib experiment, replicate R2, titrated drug dose 300 nM)?
Answer: Its value is 1.88.

Question: What about the “Raw data” value ([2]; Ceralasertib experiment, replicate R3, titrated drug dose 1 nM) of the same compound?
Answer: The value was 3.42.

Question: And the “Raw data” value ([2]; Ceralasertib experiment, replicate R3, titrated drug dose 3 nM)?
Answer: Its value is 3.64.

Question: And the “Raw data” value ([2]; Experiment (ATRi) Elimusertib, replicate R1, drug dose (titrated) 1 nM)?
Answer: The value was 3.45.

Question: What about the “Raw data” value ([2]; Experiment (ATRi) Elimusertib, replicate R1, drug dose (titrated) 3 nM) of the same compound?
Answer: The value was 3.34.

Question: What about the “Raw data” value ([2]; Experiment (ATRi) Elimusertib, replicate R1, drug dose (titrated) 10 nM) of the same compound?
Answer: Its value is 3.17.

Question: And the “Raw data” value ([2]; Experiment (ATRi) Elimusertib, replicate R1, drug dose (titrated) 30 nM)?
Answer: The value was 2.54.

Question: And the “Raw data” value ([2]; Experiment (ATRi) Elimusertib, replicate R1, drug dose (titrated) 100 nM)?
Answer: Its value is 1.97.

Question: What about the “Raw data” value ([2]; Experiment (ATRi) Elimusertib, replicate R1, drug dose (titrated) 1000 nM) of the same compound?
Answer: Its value is 1.56.
